Test results: patent US12358915B2, “METTL3 inhibitory compounds” (STORM THERAPEUTICS LTD., priority 2019, dated 2025)
Counter-ions that a name gives are not always drawn. Like-named read-outs stand apart in the source and are kept apart here.

Target: T1, METTL3/14 (Homo sapiens, UniProt Q86U44)
T1 construct: The enzyme used was full-length his-tagged METTL3; His; made in house
Assay: METTL3/14 methyltransferase assay (METTL3_14 RFMS, RapidFire mass spectrometry);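 further: recombinant His-tagged METTL3 with FLAG-tagged METTL14 from baculovirus, SAH product quantified by mass spectrometry against isotope-labelled internal standards, 60 min at room temperature, scaled between no-RNA and DMSO-only wells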
Assay type: biochemical
Conditions: 5 nM METTL3/14, 0.2 μM RNA substrate, 0.5 μM SAM, lower limit of the assay IC50=5 nM, read-out: METTL3_14 RFMS IC50

T1 sequence (Q86U44 whole entry): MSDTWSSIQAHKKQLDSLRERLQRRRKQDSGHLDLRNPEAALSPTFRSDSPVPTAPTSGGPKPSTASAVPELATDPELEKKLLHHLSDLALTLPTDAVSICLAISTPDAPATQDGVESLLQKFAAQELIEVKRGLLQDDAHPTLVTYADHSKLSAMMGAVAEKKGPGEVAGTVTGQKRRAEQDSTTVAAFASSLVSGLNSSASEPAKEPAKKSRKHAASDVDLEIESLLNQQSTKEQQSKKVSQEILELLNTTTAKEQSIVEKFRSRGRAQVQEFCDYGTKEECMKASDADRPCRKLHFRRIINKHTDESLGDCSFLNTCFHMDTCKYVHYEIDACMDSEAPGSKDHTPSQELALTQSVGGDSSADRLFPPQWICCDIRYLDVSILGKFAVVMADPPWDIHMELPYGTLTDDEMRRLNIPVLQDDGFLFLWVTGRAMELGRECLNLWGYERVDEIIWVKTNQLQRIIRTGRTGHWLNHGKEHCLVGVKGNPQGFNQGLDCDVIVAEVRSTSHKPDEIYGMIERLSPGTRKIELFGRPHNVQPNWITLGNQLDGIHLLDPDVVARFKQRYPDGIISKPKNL
T1 sequence (Q9HCE5 whole entry partner): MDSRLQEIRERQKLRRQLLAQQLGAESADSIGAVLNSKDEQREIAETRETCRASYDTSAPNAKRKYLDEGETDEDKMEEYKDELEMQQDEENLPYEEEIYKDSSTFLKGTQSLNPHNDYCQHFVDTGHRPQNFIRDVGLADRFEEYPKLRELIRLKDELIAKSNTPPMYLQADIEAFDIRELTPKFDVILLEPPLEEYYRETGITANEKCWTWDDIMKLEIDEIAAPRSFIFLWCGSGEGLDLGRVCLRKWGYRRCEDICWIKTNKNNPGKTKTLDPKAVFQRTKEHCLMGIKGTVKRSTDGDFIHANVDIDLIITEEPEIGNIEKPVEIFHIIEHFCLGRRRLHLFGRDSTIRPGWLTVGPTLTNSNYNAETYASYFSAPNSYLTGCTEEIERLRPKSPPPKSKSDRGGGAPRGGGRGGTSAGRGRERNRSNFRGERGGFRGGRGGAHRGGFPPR

IC50 (Compounds 63-265) [nM] | Structure (SMILES) | other results
 | O=C(NCc1cn2cc(CN3CC4CCC3CC4)ccc2n1)c1cc(=O)n2ccccc2n1 [Compound 351, N-{[6-({2-azabicyclo[2.2.2]octan-2-yl}methyl)imidazo[1,2-a]pyridin-2-yl]methyl}-4-oxo-4H-pyrido[1,2-a]pyrimidine-2-carboxamide] | IC50 (Compounds 266-351): 24.1 nM
119 | O=C(NCc1cn2cc(CNC3CCCOC3)ccc2n1)c1cc(=O)n2ccccc2n1 (centres unmarked) [Compound 124, N-[(6-{[(oxan-3-yl)amino]methyl}imidazo[1,2-a]pyridin-2-yl)methyl]-4-oxo-4H-pyrido [1,2-a]pyrimidine-2-carboxamide] | 
850 | O=C(NCc1cn2cc(CNC(=O)C3CCCCC3)ccc2n1)c1cc(=O)n2ccccc2n1 [Compound 238, N-({6-[(cyclohexylformamido)methyl]imidazo[1,2-a]pyridin-2-yl}methyl)-4-oxo-4H-pyrido[1,2-a]pyrimidine-2-carboxamide] | 
 | O=C(NCc1cn2cc(CNCCO)ccc2n1)c1cccc2[nH]ncc12 [Compound 45] | IC50 (Compounds 1-62): 2580 nM
 | COc1ccn2c(=O)cc(C(=O)NCc3cn4cc(C)ccc4n3)nc2c1 [Compound 19, 8-methoxy-N-({6-methylimidazo[1,2-a]pyridin-2-yl}methyl)-4-oxo-4H-pyrido[1,2-a]pyrimidine-2-carboxamide] | IC50 (Compounds 1-62): 2600 nM
 | O=C(NCc1cn2cc(CNC[C@@H]3C[C@H]4CC[C@@H]3C4)ccc2n1)c1cc(=O)n2ccccc2n1 [Compound 347, N-({6-[({[(1R,2R,4S)-bicyclo[2.2.1]heptan-2-yl]methyl}amino)methyl]imidazo[1,2-a]pyridin-2-yl}methyl)-4-oxo-4H-pyrido[1,2-a]pyrimidine-2-carboxamide] | IC50 (Compounds 266-351): 7.5 nM
17.8 | CC1CCN(Cc2ccc3nc(CNC(=O)c4cc(=O)n5ccccc5n4)cn3c2)CC1 [Compound 137, N-({6-[(4-methylpiperidin-1-yl)methyl]imidazo[1,2-a]pyridin-2-yl}methyl)-4-oxo-4H-pyrido[1,2-a] pyrimidine-2-carboxamide] | 
2110 | O=C(NCc1cn2cc(CNC3CNC3)ccc2n1)c1cc(=O)n2ccccc2n1 [Compound 241, N-[(6-{[(azetidin-3-yl)amino]methyl}imidazo[1,2-a]pyridin-2-yl)methyl]-4-oxo-4H-pyrido[1,2-a]pyrimidine-2-carboxamide] | 
 | O=C(c1cccc2[nH]ncc12)N1CC=C(c2cn3ccccc3n2)C1 [Compound 31, 4-(3-{imidazo[1,2-a]pyridin-2-yl}-2,5-dihydro-1H-pyrrole-1-carbonyl)-1H-indazole] | IC50 (Compounds 1-62): 9350 nM
 | Cc1ccc2nc(Cn3cnc(-c4cccc5[nH]ncc45)c3)cn2c1 [Example 329, 2-[[4-(1H-indazol-4-yl)imidazol-1-yl]methyl]-6-methyl-imidazo[1,2-a]pyridine formate] | IC50 (Compounds 266-351): 1640 nM
42.9 | O=C(NCc1cn2cc(CNCC3CC3(F)F)ccc2n1)c1cc(=O)n2ccccc2n1 (centres unmarked) [Compound 157, N-{[6-({[(2,2-difluoro-cyclopropyl)methyl]amino}methyl)imidazo [1,2-a]pyridin-2-yl]methyl}-4-oxo-4H-pyrido [1,2-a]pyrimidine-2-carboxamide] | 
112 | O=C(NCc1cn2cc(CNCc3cccc(C4CC4)c3)ccc2n1)c1cc(=O)n2ccccc2n1 [Compound 92, N-{[6-({[(3-cyclopropyl-phenyl)methyl]amino}methyl)imidazo[1,2-a]pyridin-2-yl]methyl}-4-oxo-4H-pyrido[1,2-a]pyrimidine-2-carboxamide] | 
 | O=Cc1ccc2nc(CNC(=O)c3cc(=O)n4ccccc4n3)cn2c1 [Example 49, N-[(6-formylimidazo[1,2-a]pyridin-2-yl)methyl]-4-oxo-pyrido[1,2-a]pyrimidine-2-carboxamide] | IC50 (Compounds 1-62): 1040 nM
5730 | O=C(NCc1cn2cc(CN3CCCC(F)(F)C3)ccc2n1)c1cc(=O)n2ccccc2n1 [Compound 208, N-({6-[(3,3-difluoropiperidin-1-yl)methyl]imidazo[1,2-a]pyridin-2-yl}methyl)-4-oxo-4H-pyrido [1,2-a]pyrimidine-2-carboxamide] | 
